Data taken from PMC12087607 (Drug Design, Development and Therapy, 2025).

What was measured:
male Wistar rats [1] = experiment: In vivo toxicity study: hepatic and renal serum biomarkers; settings: in vivo toxicity study groups, 6 weeks, mean ± SEM, n = 5
male Wistar rats [2] = experiment: In vivo toxicity study: daily inspection and body weight; settings: daily inspection, body weight twice weekly, 6 weeks
rat livers = type: in vivo; settings: toxicity groups
MDA = experiment: Lipid peroxides; type: in vivo, rat; settings: liver homogenates; CCl4 6 weeks, then 6-week treatment 20 mg/kg/day
TGF-β1 = experiment: Hepatic TGF-β1 mRNA expression; type: in vivo, rat; settings: CCl4 6 weeks, then 6-week treatment 20 mg/kg/day; vs model group
TIMP-1 = experiment: Hepatic TIMP-1 protein levels; type: in vivo, rat; settings: tissue homogenates; CCl4 6 weeks, then 6-week treatment 20 mg/kg/day
α-SMA = experiment: Immunohistochemical staining of α-SMA in CCl4-induced liver fibrosis; type: in vivo, rat; settings: CCl4 6 weeks, then 6-week treatment 20 mg/kg/day; vs model group
[3] = test system: rats with CCl4-induced liver fibrosis; experiment: Liver histology; type: in vivo, rat; settings: CCl4 6 weeks, then 6-week treatment 20 mg/kg/day
GSH = experiment: Reduced glutathione; type: in vivo, rat; settings: liver homogenates; CCl4 6 weeks, then 6-week treatment 20 mg/kg/day
[4] = test system: rats with CCl4-induced liver fibrosis; experiment: Serum liver biomarkers in CCl4-induced liver fibrosis; type: in vivo, rat; settings: CCl4 6 weeks, then 6-week treatment 20 mg/kg/day
MMP-9 = experiment: Hepatic MMP-9 mRNA expression; type: in vivo, rat; settings: CCl4 6 weeks, then 6-week treatment 20 mg/kg/day
TNF-α = experiment: Liver TNF-α content; type: in vivo, rat; settings: liver homogenates; CCl4 6 weeks, then 6-week treatment 20 mg/kg/day

Structure (SMILES): Cc1ccc(-c2cc(C(F)(F)F)nn2-c2ccc(S(N)(=O)=O)cc2)cc1 [celecoxib]
- ALP (male Wistar rats [1]): 123 ± 6.59 U/L
- ALT (male Wistar rats [1]): 45.66 ± 0.88 U/L
- AST (male Wistar rats [1]): 127.5 ± 14 U/L
- Albumin (male Wistar rats [1]): 3.68 ± 0.04 g/dL
- Creatinine (male Wistar rats [1]): 0.43 ± 0.06 mg/dL
- Total Bilirubin (male Wistar rats [1]): 0.045 ± 0.006 mg/dL
- Signs of stress, toxicity or weight loss (male Wistar rats [2]): did not show any signs of stress, toxicity or weight loss
- Gross examination of rat livers (rat livers): normal smooth livers with no inflammation or fatty depositions
- MDA content (lipid peroxides) (MDA): significant lowering effect on MDA levels
- Hepatic TGF-β1 mRNA expression (TGF-β1): significant reduction in the expression of TGF- β1
- Hepatic TIMP-1 protein levels (TIMP-1): caused a decrease in TIMP-1 levels
- α-SMA % change (in words) (α-SMA): significant decline of the α-SMA %
- Liver architecture (H&E) [3]: evident fibrolytic effects
- Fibrosis score (0–4) ([3]; Masson's trichrome): significant decrease in fibrosis scores
- GSH content (GSH): significant rise in GSH levels
- Serum ALP levels ([4]; normal range 30 to 130 U/L): lied within the normal range
- Serum AST and ALT levels ([4]; vs model group): significant reduction in liver enzyme levels
- Total serum bilirubin (TBIL) levels ([4]; vs model group): significant decrease in the total serum bilirubin levels
- Hepatic MMP-9 mRNA expression (MMP-9): reversed that upregulation
- Liver TNF-α content (TNF-α): significantly superior effect in lowering TNF-α levels
